Measurements reported in the METLIN SMRT retention time set (Domingo-Almenara et al. 2019).

Assay: gradient 5% acetonitrile 3 min, to 50% in 2 min, to 85% in 15 min, held 3 min, 100 µL/min
Conditions: column: Zorbax Extend-C18 2.1 x 50 mm; eluents: water / acetonitrile, 0.1% formic acid
Outline: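 Over 3 months, pure standards in mixtures of ~100 molecules were run by HPLC coupled to a quadrupole time-of-flight mass spectrometer in positive and negative ionization mode. The column was a Zorbax Extend-C18 (2.1 × 50 mm, 1.8 μm) at 100 μL/min, eluted with water and acetonitrile each holding 0.1% formic acid, with 40 μL dead and 900 μL dwell volumes. Retention time was determined from adduct peaks chosen by software and checked manually.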

Row | RP-LC retention time | Structure (SMILES)
1 | 744 s | CCC(=O)N1CCc2cc(C(=O)NC3CCCC3)ccc21
2 | 766 s | Cc1cc(-c2nnc(NC(=O)c3ccc4c(c3)OCCO4)o2)c(C)o1
3 | 1040 s | CC(C)c1cc(C(=O)Nc2ccc(F)c(F)c2)no1
4 | 638 s | O=C(Nc1c(-c2ccc(F)cc2)nc2ccccn12)c1ccccc1
5 | 588 s | O=C(NCc1ccncc1)C1CC(=O)N(CCc2c[nH]c3ccc(F)cc23)C1 (centres undefined)
6 | 781 s | COc1ccc(NS(=O)(=O)c2sc3ccc(Cl)cc3c2C)cc1N1CCNCC1
7 | 711 s | Cc1ccn2cc(-c3ccc(NC(=O)Nc4ccc(Cl)cc4)cc3)nc2n1
8 | 1050 s | COc1ccc(-c2noc(C3CC(=O)N(c4ccc(C)c(C)c4)C3)n2)cc1 (centres undefined)
9 | 719 s | Cc1ncsc1C1N(C2CCN(C(=O)c3ccoc3)CC2)C(=O)C12CCCC2 (centres undefined)
10 | 863 s | CCc1ccc(NC(=O)Cn2ncn3c(C)c(C(=O)NCc4ccccc4)c(C)c3c2=O)cc1
11 | 1130 s | Cc1ccccc1OCc1nc(-c2cccc(-c3ccnn3C)c2)no1
12 | 1060 s | Cc1nn(-c2cccc(Cl)c2)c2nc(N3CCCC(C(=O)NC4CC4)C3)sc12 (centres undefined)
13 | 817 s | Cc1cc(C)n(-c2ccc(Nc3ccc(NS(=O)(=O)c4cccc(F)c4)cc3)nn2)n1
14 | 686 s | CSc1ccc(CNC(=O)Cc2cn(C)c3ncccc23)cc1
15 | 702 s | O=C(Cc1ccc2c(c1)OCO2)Nc1ccc2scnc2c1
16 | 883 s | Cc1noc(-c2ccc(-n3cnc(C(=O)NC4CCCCC4)c3)nc2)n1
17 | 927 s | Cc1cc(C)c(NC(=O)C2CCN(c3c(C(=O)N4CCCCC4)cnc4snc(C)c34)CC2)c(C)c1
18 | 920 s | Cc1cccc(NC(=O)C2C(=O)NC3(C)CC2c2ccccc2O3)c1 (centres undefined)
19 | 693 s | COc1ccc(OC)c(NC(=O)CN2CCc3[nH]c4c(C)ccc(C)c4c(=O)c3C2)c1
20 | 1140 s | COc1ccc(S(=O)(=O)N2CCc3nc(-c4ccc(F)cc4)ncc3C2)cc1Cl
21 | 612 s | CCOc1ccccc1NC(=O)Nc1ccc2nc(N3CCN(C)CC3)cc(C)c2c1
22 | 745 s | CCc1ccc(S(=O)(=O)N2C[C@@H](F)C[C@H]2C(=O)N2CCOCC2)cc1

Row | RP-LC retention time | Structure (SMILES)
23 | 812 s | Cc1cc2c(cc1S(=O)(=O)N1CCCC1C(=O)NCc1ccccc1Cl)OC(C)C(=O)N2 (centres undefined)
24 | 795 s | O=C(Nc1cc(-c2ccccn2)no1)c1ccc(F)cc1
25 | 1120 s | COc1cc(Nc2nc(-c3nnn(-c4ccc(Br)cc4F)c3C)ns2)cc(OC)c1
26 | 750 s | O=C(CSc1ncnc2c1cnn2-c1ccc(Cl)cc1)Nc1ccc(F)cc1F
27 | 968 s | CCc1noc(-c2ccc(-n3cnc(C(=O)NC4CCCCCC4)c3)nc2)n1
28 | 704 s | CC1=C(C(=O)Nc2ccccc2C)C(c2ccc(Cl)cc2Cl)NC(=O)N1 (centres undefined)
29 | 684 s | CCCN(C)c1nccn2c(=O)n(CC(=O)Nc3cccc(C)c3C)nc12
30 | 725 s | CN1C(=O)C2(CCN(C(=O)c3ccc(C#N)cc3)C2)c2ccccc21 (centres undefined)
31 | 1230 s | CCn1c(=O)c(N2CCCC(C(=O)N3CCN(c4ccc(Cl)cc4)CC3)C2)nc2ccccc21 (centres undefined)
32 | 748 s | COc1ncc(C(=O)NC2CCC(C)CC2)cn1 (centres undefined)
33 | 803 s | COc1ccc(S(=O)(=O)NCc2ccc3c(c2)CCN3C(=O)C(C)C)cc1OC
34 | 844 s | Cc1cc(F)ccc1NC(=O)C1CCN(S(=O)(=O)c2ccc3c(c2)sc(=O)n3C)CC1
35 | 753 s | CCOc1ccc(NC(=O)c2oc3cc(C)ccc3c2C)c2cccnc12
36 | 1200 s | CCOc1ccc(-c2noc(Cc3nnc(-c4ccc(C)c(C)c4)o3)n2)cc1
37 | 838 s | CCc1ccccc1NC(=O)Cn1nc2nc(N3CCCC(C)C3)ccn2c1=O (centres undefined)
38 | 1090 s | COc1cc(C2CC(=O)c3c([nH]c(C(=O)OC4CCCCC4)c3C)C2)cc(OC)c1OC (centres undefined)
39 | 645 s | O=C(NCc1ccc(F)cc1)C1CCN(c2nnc3c(Cl)cccn23)CC1
40 | 845 s | COc1ccc(C2CCN(S(C)(=O)=O)CC2)cc1
41 | 811 s | COc1ccc(-c2cn3c(CC(=O)NCc4cccc(Br)c4)csc3n2)cc1
42 | 601 s | O=C(CCc1nnc2c3cc(-c4ccc(F)cc4)nn3ccn12)NCCc1cccnc1
43 | 586 s | COc1ccc(N2CCN(c3cc(-c4nc(-c5ccccc5)no4)c4ccccc4n3)CC2)cc1
44 | 1030 s | CCc1nc2cc(-c3noc(Cc4ccsc4)n3)ccc2o1

Row | RP-LC retention time | Structure (SMILES)
45 | 665 s | CCn1cc(CCNC(=O)Nc2cccc(C(C)=O)c2)c2cccnc21
46 | 579 s | O=c1ccc(-c2ccc(Cl)cc2)nn1CCCNS(=O)(=O)Cc1ccccc1
47 | 894 s | Cc1cc(C)c(NC(=O)Cn2nc3c(Oc4ccccc4C)nccn3c2=O)c(C)c1
48 | 897 s | COc1ccccc1NC(=O)CSc1nnc2c3cc(-c4ccc(F)cc4)nn3ccn12
49 | 590 s | CCCN1CCN(C(=O)Cn2c3ccccc3c3cnn(C)c(=O)c32)CC1
50 | 862 s | O=C1CC(c2nc(-c3ccc4c(c3)OCO4)no2)CN1c1ccc2c(c1)OCO2 (centres undefined)
51 | 810 s | O=C(C1CCN(c2nnc(-c3ccccc3)o2)CC1)N1CCCCCC1
52 | 550 s | Cc1cc(C)c2c(N3CCCCC3)nc(C(=O)NCCN3CCOCC3)nc2n1
53 | 1260 s | c1ccc(-c2nnc3nc(N4CCCCC4)nc(N4CCCCC4)n23)cc1
54 | 897 s | CC(C)NC(=O)c1ccc(OCC2CCN(C(=O)C3(c4ccccc4)CC3)CC2)cc1
55 | 570 s | O=C(Nc1ccccc1Cl)N1CCc2nc[nH]c2C1
56 | 966 s | CCCN1C(=O)C(C)(C(=O)Nc2ccc(OCC)cc2)Oc2cccnc21 (centres undefined)
57 | 674 s | Cc1nnc(-c2ccc3ccn(CC(=O)N4CCN(C(=O)c5ccco5)CC4)c3c2)o1
58 | 984 s | O=C1[C@H]2CN(Cc3ccc(C(F)(F)F)cc3)C[C@H]2C(=O)N1CCc1ccccc1
59 | 634 s | CCN1CCc2nc(NC(=O)C3CCN(S(=O)(=O)c4cccs4)CC3)sc2C1
60 | 661 s | CCn1cnc(S(=O)(=O)N2CCC(C(=O)NCCc3ccc(OC)c(OC)c3)CC2)c1
61 | 964 s | Cc1cc(F)ccc1NC(=O)C1CN(S(=O)(=O)C2CC2)CC12CCCCC2 (centres undefined)
62 | 728 s | CCCNC(=O)C1CCCN(c2nc3ncn(CC(=O)Nc4c(C)cc(C)cc4C)c(=O)c3s2)C1 (centres undefined)
63 | 791 s | O=C(c1n[nH]c2ccccc12)N1CCCn2nc(-c3cccs3)cc2C1
64 | 736 s | Cc1noc(-c2nc(-c3cccnc3)no2)n1
65 | 700 s | CCCC(NC(=O)Cc1cccc(OC)c1)C(=O)Nc1nc2ccccc2[nH]1 (centres undefined)
66 | 1100 s | O=S(=O)(c1ccccc1Cl)N1CCC(c2noc(COCc3ccccc3)n2)CC1

Row | RP-LC retention time | Structure (SMILES)
67 | 917 s | O=C(NCc1ccco1)C1CCN(S(=O)(=O)c2cc(-c3noc(C4CCC4)n3)cs2)CC1
68 | 981 s | COc1ccc(-c2coc3cc(OC(=O)c4ccc5c(c4)OCO5)ccc3c2=O)cc1OC
69 | 734 s | COCCN1CCn2cc(S(=O)(=O)Nc3ccc(Cl)cc3F)cc2C1=O
70 | 627 s | CC(C)Oc1ccccc1CN1CCC2(CC1)CC(C)(O)CCO2 (centres undefined)
71 | 654 s | CN1C(=O)c2cccn2CC1C(=O)NCc1cccs1 (centres undefined)
72 | 800 s | CCn1ncc(NC(=O)CCc2ccccc2)c(N2CCOCC2)c1=O
73 | 692 s | CN(C)S(=O)(=O)c1ccc2c(c1)N(CC(=O)NC1CCCCCCC1)C(=O)C1CCCCN21 (centres undefined)
74 | 844 s | CCOC(=O)Cn1cccc1-c1nc(-c2ccncc2)no1
75 | 812 s | CN(CC1CCOCC1)C(=O)Nc1ccc(C(F)(F)F)cc1
76 | 1030 s | CCOC(=O)c1cc(OC)c(OC)cc1NC(=O)c1cc(OC)c(OC)c(OC)c1
77 | 817 s | CCn1cc(S(=O)(=O)Nc2cccc(F)c2)c2cccnc21
78 | 989 s | O=C(Cn1nc(N2CCCC2)c2ccccc2c1=O)Nc1cccc(Cl)c1
79 | 579 s | CN1CCC(CCNC(=O)C2CCc3sc(C(=O)N4CCCC4)cc3C2)CC1 (centres undefined)
80 | 780 s | O=C(NCc1ccco1)c1ccc(Cn2nc(N3CCN(c4ccccc4)CC3)ccc2=O)o1
81 | 579 s | CNC(=O)[C@@H]1CN(S(=O)(=O)C(C)C)C[C@H]1COC
82 | 1320 s | Cc1cccc(-c2nc(C3CCN(S(=O)(=O)c4cc(C)ccc4C)CC3)no2)c1
83 | 956 s | Cc1ccc(NC(=O)c2cnc3c(c2)c(=O)n(C)c(=O)n3-c2ccccc2)cc1F
84 | 580 s | CC1CN2C=NC(N3CCN(C(=O)c4ccccc4)CC3)=CC2=N1 (centres undefined)
85 | 1010 s | CC(C(=O)N1CCC(N2CCc3ccccc32)CC1)c1ccccc1 (centres undefined)

Row | Structure (SMILES) | RP-LC retention time
86 | CC(C)(O)[C@@H]1[C@@H]2OC(=O)[C@H]1[C@]1(O)C[C@H]3O[C@]34C(=O)O[C@H]2[C@]14C | 709 s
87 | COc1ccc(C2(C(=O)N3CCC4(CC3)N(C)C(=O)CS4=O)CC2)cc1 (centres undefined) | 636 s
88 | COc1ccc(C(=O)N2[C@H]3CC[C@@H]2c2cnc(C)nc2C3)cn1 | 622 s
89 | CN1CCC(c2c[nH]c3ccccc23)C1 (centres undefined) | 648 s
